Our source for the IC50 values is US20230092890A1, “1, 3, 4-Oxadiazole derivative compounds as histone deacetylase 6 inhibitor, and the pharmaceutical composition comprising the same” (Chong Kun Dang Pharmaceutical Corp., priority 2019, published 2023).

As usually defined, the IC50 is the point on the concentration scale where inhibition reaches its midpoint.

Structures are written as SMILES.

One assay addresses T1, HDAC6 human recombinant (Homo sapiens, UniProt Q9UBN7).
T1 construct: purchased Calbiochem 382180
T1 sequence (Q9UBN7 1-1215): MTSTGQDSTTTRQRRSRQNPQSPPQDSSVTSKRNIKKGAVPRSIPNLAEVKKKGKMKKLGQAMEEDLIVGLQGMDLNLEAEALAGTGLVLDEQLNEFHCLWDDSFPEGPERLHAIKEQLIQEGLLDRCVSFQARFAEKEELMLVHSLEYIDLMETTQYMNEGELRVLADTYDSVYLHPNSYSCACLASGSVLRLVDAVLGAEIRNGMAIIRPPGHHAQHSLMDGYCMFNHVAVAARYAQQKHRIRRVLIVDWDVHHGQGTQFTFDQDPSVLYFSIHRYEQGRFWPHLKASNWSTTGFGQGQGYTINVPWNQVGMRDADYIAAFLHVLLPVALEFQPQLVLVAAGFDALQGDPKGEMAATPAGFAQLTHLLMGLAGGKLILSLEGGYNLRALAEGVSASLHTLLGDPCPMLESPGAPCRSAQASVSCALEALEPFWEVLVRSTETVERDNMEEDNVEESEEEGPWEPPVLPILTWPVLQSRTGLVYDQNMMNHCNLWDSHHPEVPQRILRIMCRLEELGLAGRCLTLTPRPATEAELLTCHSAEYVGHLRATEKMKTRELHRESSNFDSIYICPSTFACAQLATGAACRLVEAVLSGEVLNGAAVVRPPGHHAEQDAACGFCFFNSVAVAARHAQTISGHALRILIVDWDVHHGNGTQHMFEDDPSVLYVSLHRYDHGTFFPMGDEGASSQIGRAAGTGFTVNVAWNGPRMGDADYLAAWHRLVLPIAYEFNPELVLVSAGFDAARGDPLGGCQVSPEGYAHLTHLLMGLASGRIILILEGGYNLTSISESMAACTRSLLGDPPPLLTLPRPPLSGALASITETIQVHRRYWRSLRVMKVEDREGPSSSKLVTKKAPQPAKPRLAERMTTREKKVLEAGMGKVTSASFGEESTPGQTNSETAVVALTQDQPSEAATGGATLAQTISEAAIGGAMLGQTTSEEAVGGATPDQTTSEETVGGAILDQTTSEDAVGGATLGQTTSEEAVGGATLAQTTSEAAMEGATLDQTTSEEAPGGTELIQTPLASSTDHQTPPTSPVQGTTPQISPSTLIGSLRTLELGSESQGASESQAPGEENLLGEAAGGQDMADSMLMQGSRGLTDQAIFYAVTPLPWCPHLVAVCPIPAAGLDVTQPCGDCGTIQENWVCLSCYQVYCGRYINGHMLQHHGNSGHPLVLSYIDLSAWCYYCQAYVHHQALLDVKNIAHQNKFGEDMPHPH
Put plainly: HDAC enzyme activity inhibition (in vitro), HDAC6 assay. The assay is classed as biochemical. To be noted: samples at 0.1, 1, 10, 100 and 1000 nM; 37° C. 60 minutes; fluorescence Ex 390, Em 460; read-out: HDAC6 IC50. The method in brief: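 HDAC6 human recombinant enzyme with fluorimetric substrate; […]. Reaction 60 min at 37° C, then developer 30 min at 37° C; fluorescence read at Ex 390/Em 460.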

In the next assay the target is T2, HDAC1 (Homo sapiens, UniProt Q13547).
T2 construct: purchased Enzolifesciences BML-AK511
T2 sequence (Q13547 whole entry): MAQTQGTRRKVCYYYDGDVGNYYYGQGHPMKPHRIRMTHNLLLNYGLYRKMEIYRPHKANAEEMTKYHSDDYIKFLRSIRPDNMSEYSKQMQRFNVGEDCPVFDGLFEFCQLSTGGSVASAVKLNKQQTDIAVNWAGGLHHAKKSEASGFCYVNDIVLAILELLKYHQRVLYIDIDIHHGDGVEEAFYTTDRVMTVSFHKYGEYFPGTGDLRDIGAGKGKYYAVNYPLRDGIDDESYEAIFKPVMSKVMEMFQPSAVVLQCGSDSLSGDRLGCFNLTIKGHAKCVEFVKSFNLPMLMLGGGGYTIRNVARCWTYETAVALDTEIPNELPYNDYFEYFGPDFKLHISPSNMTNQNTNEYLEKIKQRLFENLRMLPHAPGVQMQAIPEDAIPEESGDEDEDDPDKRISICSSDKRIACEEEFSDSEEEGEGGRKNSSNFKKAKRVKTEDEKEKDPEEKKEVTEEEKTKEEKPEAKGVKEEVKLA
Put plainly: HDAC enzyme activity inhibition (in vitro), HDAC1 Fluorimetric Drug Discovery Assay Kit. The assay is classed as biochemical. Conditions: samples at 100, 1000 and 10000 nM; 37° C. 60 minutes; fluorescence Ex 390, Em 460; read-out: HDAC1 IC50. Summed up: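 HDAC1 was tested at 100, 1000 and 10000 nM and recombinant human HDAC6 at 0.1, 1, 10, 100 and 1000 nM. Enzyme reactions ran 60 min at 37° C, then developer was added for 30 min at 37° C, and fluorescence (Ex 390, Em 460) was read.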

Regarding `Cn1c(=O)n(Cc2ccc(-c3nnc(C(F)F)o3)cn2)c2cc(F)c(N3CCN(C4COC4)CC3)cc21` [Compound 264, 1-((5-(5-(difluoromethyl)-1,3,4-oxadiazole-2-yl)pyridine-2-yl)methyl)-6-fluoro-3-methy 1-5-(4-(oxetan-3-yl)piperazine-1-yl)-1,3-dihydro-2H-benzo[d]imidazole-2-one], the IC50 on HDAC6 human recombinant is 61 nM; on HDAC1, greater than 10000 nM.
For the compound `O=c1oc2cc(Cl)ccc2n1Cc1ccc(-c2nnc(C(F)F)o2)cn1` [Compound 265, 6-chloro-3-((5-(5-(difluoromethyl)-1,3,4-oxadiazole-2-yl)pyridine-2-yl)methyl)benzo[d]oxazole-2(3H)-one], the IC50 at HDAC6 human recombinant was 46 nM; on HDAC1, greater than 10000 nM.
Turning to `Cn1c(=O)n(Cc2ccc(-c3nnc(C(F)F)o3)cn2)c2cc(F)c(N3CCN(C(=O)CO)CC3)cc21` [Compound 266, 1-((5-(5-(difluoromethyl)-1,3,4-oxadiazole-2-yl)pyridine-2-yl)methyl)-6-fluoro-5-(4-(2-hydroxyacetyl)piperazine-1-yl)-3-methyl-1,3-dihydro-2H-benzo[d]imidazole-2-one], the figures for the IC50 on HDAC6 human recombinant and on HDAC1 were 39 nM and greater than 10000 nM, respectively.
Turning to `O=c1n(CCN2CCOCC2)c2cc(-c3cccnc3)c(F)cc2n1Cc1ccc(-c2nnc(C(F)F)o2)cn1` [Compound 267, 1-((5-(5-(difluoromethyl)-1,3,4-oxadiazole-2-yl)pyridine-2-yl)methyl)-6-fluoro-3-(2-morpholinoethyl)-5-(pyridine-3-yl)-1,3-dihydro-2H-benzo[d]imidazole-2-one], the IC50 at HDAC6 human recombinant was 42 nM; on HDAC1, greater than 10000 nM.
In the case of `CN1CC[C@H](n2c(=O)n(Cc3ccc(-c4nnc(C(F)F)o4)cn3)c3cc(F)c(-c4cccnc4)cc32)C1` [Compound 268, (S)-1-((5-(5-(difluoromethyl)-1,3,4-oxadiazole-2-yl)pyridine-2-yl)methyl)-6-fluoro-3-(1-methylpyrrolidine-3-yl)-5-(pyridine-3-yl)-1,3-dihydro-2H-benzo[d]imidazole-2-one], the IC50 is 20 nM at HDAC6 human recombinant and greater than 10000 nM at HDAC1.
For the compound `O=c1n(CCN2CCOCC2)c2cc(-c3cccc4[nH]ccc34)c(F)cc2n1Cc1ccc(-c2nnc(C(F)F)o2)cn1` [Compound 269, 1-((5-(5-(difluoromethyl)-1,3,4-oxadiazole-2-yl)pyridine-2-yl)methyl)-6-fluoro-5-(1H-indole-4-yl)-3-(2-morpholinoethyl)-1,3-dihydro-2H-benzo[d]imidazole-2-one], the IC50 is 6 nM at HDAC6 human recombinant and greater than 10000 nM at HDAC1.
For `CN1CC[C@H](n2c(=O)n(Cc3ccc(-c4nnc(C(F)F)o4)cn3)c3cc(F)c(-c4cccc5[nH]ccc45)cc32)C1` [Compound 270, (S)-1-((5-(5-(difluoromethyl)-1,3,4-oxadiazole-2-yl)pyridine-2-yl)methyl)-6-fluoro-5-(1H-indole-4-yl)-3-(1-methylpyrrolidine-3-yl)-1,3-dihydro-2H-benzo[d]imidazole-2-one], the IC50 on HDAC6 human recombinant was 19 nM; on HDAC1 it was greater than 10000 nM.
Regarding `O=c1n(Cc2ccc(-c3nnc(C(F)F)o3)cn2)c2cc(Cl)ccc2n1C1CCN(C2COC2)CC1` [Compound 271, 5-chloro-3-((5-(5-(difluoromethyl)-1,3,4-oxadiazole-2-yl)pyridine-2-yl)methyl)-1-(1-(oxetan-3-yl)piperidine-4-yl)-1,3-dihydro-2H-benzo[d]imidazole-2-one], the IC50 at HDAC6 human recombinant is 27 nM; at HDAC1, greater than 10000 nM.
Consider `CN1CC[C@@H](n2c(=O)n(Cc3ccc(-c4nnc(C(F)F)o4)cn3)c3cc(F)c(-c4ccncc4)cc32)C1` [Compound 272, (R)-1-((5-(5-(difluoromethyl)-1,3,4-oxadiazole-2-yl)pyridine-2-yl)methyl)-6-fluoro-3-(1-methylpyrrolidine-3-yl)-5-(pyridine-4-yl)-1,3-dihydro-2H-benzo[d]imidazole-2-one], for which the IC50 was 29 nM on HDAC6 human recombinant and greater than 10000 nM on HDAC1.
As to `CN1CC[C@@H](n2c(=O)n(Cc3ccc(-c4nnc(C(F)F)o4)cn3)c3cc(F)c(-c4cccc5[nH]ccc45)cc32)C1` [Compound 273, (R)-1-((5-(5-(difluoromethyl)-1,3,4-oxadiazole-2-yl)pyridine-2-yl)methyl)-6-fluoro-5-(1H-indole-4-yl)-3-(1-methylpyrrolidine-3-yl)-1,3-dihydro-2H-benzo[d]imidazole-2-one], the IC50 at HDAC6 human recombinant is 14 nM; at HDAC1 it was greater than 10000 nM.
As for `CN1CCC[C@@H](n2c(=O)n(Cc3ccc(-c4nnc(C(F)F)o4)cn3)c3cc(F)c(-c4cccnc4)cc32)C1` [Compound 274, (R)-1-((5-(5-(difluoromethyl)-1,3,4-oxadiazole-2-yl)pyridine-2-yl)methyl)-6-fluoro-3-(1-methylpiperidine-3-yl)-5-(pyridine-3-yl)-1,3-dihydro-2H-benzo[d]imidazole-2-one], the IC50 is 12 nM on HDAC6 human recombinant and greater than 10000 nM at HDAC1.
Consider `CN1CCC[C@@H](n2c(=O)n(Cc3ccc(-c4nnc(C(F)F)o4)cn3)c3cc(F)c(-c4ccncc4)cc32)C1` [Compound 275, (R)-1-((5-(5-(difluoromethyl)-1,3,4-oxadiazole-2-yl)pyridine-2-yl)methyl)-6-fluoro-3-(1-methylpiperidine-3-yl)-5-(pyridine-4-yl)-1,3-dihydro-2H-benzo[d]imidazole-2-one], for which the IC50 at HDAC6 human recombinant was 16 nM; on HDAC1, greater than 10000 nM.
For the compound `CN1CCC[C@@H](n2c(=O)n(Cc3ccc(-c4nnc(C(F)F)o4)cn3)c3cc(F)c(-c4cccc5[nH]ccc45)cc32)C1` [Compound 276, (R)-1-((5-(5-(difluoromethyl)-1,3,4-oxadiazole-2-yl)pyridine-2-yl)methyl)-6-fluoro-5-(1H-indole-4-yl)-3-(1-methylpiperidine-3-yl)-1,3-dihydro-2H-benzo[d]imidazole-2-one], the IC50 on HDAC6 human recombinant is 15 nM; on HDAC1, greater than 10000 nM.
Consider `O=c1oc2cc(-c3cccnc3)c(F)cc2n1Cc1ccc(-c2nnc(C(F)F)o2)cn1` [Compound 277, 3-((5-(5-(difluoromethyl)-1,3,4-oxadiazole-2-yl)pyridine-2-yl)methyl)-5-fluoro-6-(pyridine-3-yl)benzo[d]oxazole-2(3H)-one], for which the IC50 was 21 nM at HDAC6 human recombinant and greater than 10000 nM at HDAC1.
Turning to `O=c1oc2cc(-c3ccncc3)c(F)cc2n1Cc1ccc(-c2nnc(C(F)F)o2)cn1` [Compound 278, 3-((5-(5-(difluoromethyl)-1,3,4-oxadiazole-2-yl)pyridine-2-yl)methyl)-5-fluoro-6-(pyridine-4-yl)benzo[d]oxazole-2(3H)-one], the IC50 at HDAC6 human recombinant was 17 nM; on HDAC1, greater than 10000 nM.
As for `O=c1oc2cc(-c3cccc4[nH]ccc34)c(F)cc2n1Cc1ccc(-c2nnc(C(F)F)o2)cn1` [Compound 279, 3-((5-(5-(difluoromethyl)-1,3,4-oxadiazole-2-yl)pyridine-2-yl)methyl)-5-fluoro-6-(1H-indole-4-yl)benzo[d]oxazole-2(3H)-one], the IC50 at HDAC6 human recombinant was 15 nM; on HDAC1, greater than 10000 nM.
With `O=c1n(Cc2ccc(-c3nnc(C(F)F)o3)cn2)c2ccc(-c3cccnc3)cc2n1C1CCN(C2COC2)CC1` [Compound 280, 1-((5-(5-(difluoromethyl)-1,3,4-oxadiazole-2-yl)pyridine-2-yl)methyl)-3-(1-(oxetan-3-yl)piperidine-4-yl)-5-(pyridine-3-yl)-1,3-dihydro-2H-benzo[d]imidazole-2-one], the concentration for half-maximal inhibition (IC50) at HDAC6 human recombinant is 18 nM; on HDAC1, greater than 10000 nM.
